Results taken from US12606541B2, “PPARg modulators and methods of use” (Eisai R&D Management Co., Ltd., priority 2020, dated 2026).
Like-named read-outs stand apart in the source and are kept apart here.

What was measured:
[1] = target: T1, His6-TEV-PPARγ-(234-505) (Homo sapiens, UniProt P37231); test: TR-FRET Assay to Measure Co-R Peptide Recruitment to PPARγ; assay type: biochemical; details: Co-R peptide (SMRT-ID2) recruitment; top final concentration 20 μM; read-out: TR-FRET i-Ag; AC50
T1 construct: The His6-TEV-PPARγ-(234-505) protein for assay was expressed and purified; TEV cleavage site (N); made in house
T1 sequence (P37231 234-505): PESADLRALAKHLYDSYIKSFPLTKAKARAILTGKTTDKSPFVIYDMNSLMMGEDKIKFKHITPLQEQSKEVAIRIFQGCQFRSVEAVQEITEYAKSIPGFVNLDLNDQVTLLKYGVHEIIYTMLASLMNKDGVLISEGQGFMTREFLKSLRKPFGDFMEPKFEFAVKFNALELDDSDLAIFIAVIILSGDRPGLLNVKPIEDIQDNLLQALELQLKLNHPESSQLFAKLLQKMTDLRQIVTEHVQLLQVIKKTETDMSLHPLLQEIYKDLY
Summary of the method: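 His-tagged PPARγ (or controls) was preincubated with compound for 20 minutes at room temperature, then 5 nM anti-His terbium antibody and 200 nM FITC-labeled SMRT-ID2 corepressor peptide (final) were added for a further hour. TR-FRET signal was normalized to percent response using 500 nM T0070907 and DMSO controls.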

[2] = tested on: UM-UC-9 engineered cells; test: Cell proliferation / short-term viability assay, CellTiter-Glo 144 h; assay type: cell-based, human; details: read-out: CTGlo 144 h UMUC9.5, G150
Summary of the method: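 UM-UC-9 engineered assay-ready cells seeded at 500 cells/well in high-glucose DMEM/10% FBS, treated from dose-response plates, grown at 37° C, 5% CO2. CellTiter-Glo 2.0 luminescence read on day 7, with a day-0 pretreatment plate as T0 reference and DMSO wells as negative control.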

| AC50 [1] [nM] | SMILES | IC50 ([2]; Homo sapiens, UM-UC-9, 144 h) [nM] | IC50 [2] [nM] |
| --- | --- | --- | --- |
| 13.4 | COc1cc(-c2cc(C(=O)N3CC[C@H](C(=O)NCc4ncc(C(F)(F)F)cn4)CC34CC4)n[nH]2)c(F)cn1 [Example 457, (S)-4-(5-(5-fluoro-2-methoxypyridin-4-yl)-1H-pyrazole-3-carbonyl)-N-((5-(trifluoromethyl)pyrimidin-2-yl)methyl)-4-azaspiro[2.5]octane-7-carboxamide] | 414 |  |
| 2.9 | COc1cc(-c2cc(C(=O)N3CC[C@H](C(=O)Nc4cnn5c4OC(C)(C)CC5)CC34CC4)n[nH]2)c(F)cn1 [Example 498, (S)—N-(5,5-dimethyl-6,7-dihydro-5H-pyrazolo[5,1-b][1,3]oxazin-3-yl)-4-(5-(5-fluoro-2-methoxypyridin-4-yl)-1H-pyrazole-3-carbonyl)-4-azaspiro[2.5]octane-7-carboxamide] | 21.9 |  |
| 231 | COc1cc(-c2cc(C(=O)N3CC[C@H](C(=O)NC4CCN(S(C)(=O)=O)CC4)CC34CC4)n[nH]2)c(F)cn1 [Example 420, (S)-4-(5-(5-fluoro-2-methoxypyridin-4-yl)-1H-pyrazole-3-carbonyl)-N-(1-(methylsulfonyl)piperidin-4-yl)-4-azaspiro[2.5]octane-7-carboxamide] | 1370 |  |
| 679 | COc1cc(-c2cc(C(=O)N3CCC(C(=O)NCc4cc(C)n(C)n4)CC3)n[nH]2)c(Cl)cn1 [Example 141, 1-(5-(5-chloro-2-methoxypyridin-4-yl)-1H-pyrazole-3-carbonyl)-N-((1,5-dimethyl-1H-pyrazol-3-yl)methyl)piperidine-4-carboxamide] | 2600 |  |
| 12.8 | COc1cc(-c2cc(C(=O)N3CCC(C(=O)NCc4c(F)ccc(F)c4F)CC3)n[nH]2)c(Cl)cn1 [Example 123, 1-(5-(5-chloro-2-methoxypyridin-4-yl)-1H-pyrazole-3-carbonyl)-N-(2,3,6-trifluorobenzyl)piperidine-4-carboxamide] | 100 |  |
| 1.4 | O=C(NC1CCC(O)(C(F)(F)F)CC1)C1CCN(C(=O)c2cc(-c3cc(Cl)ncc3F)[nH]n2)C2(CC2)C1 (single isomer, unassigned) [Example 529-B] |  | 9.2 |
| 2.8 | CCOC1(C(F)(F)F)CCC(NC(=O)[C@H]2CCN(C(=O)c3cc(-c4cc(C)ncn4)[nH]n3)C3(CC3)C2)CC1 (mixture of isomers) [Example 308-A, (S)—N-(4-ethoxy-4-(trifluoromethyl)cyclohexyl)-4-(5-(6-methylpyrimidin-4-yl)-1H-pyrazole-3-carbonyl)-4-azaspiro[2.5]octane-7-carboxamide] | 5.6 |  |
| 18000 | Cc1cc(-c2cc(C(=O)N3CC[C@@H](C(=O)NC4CCC5(CCO5)CC4)CC34CC4)n[nH]2)ncn1 (mixture of isomers) [Example 300-A, (R)-4-(5-(6-methylpyrimidin-4-yl)-1H-pyrazole-3-carbonyl)-N-(1-oxaspiro[3.5]nonan-7-yl)-4-azaspiro[2.5]octane-7-carboxamide] | > 4000 |  |
| 17 | CO[C@]1(C(F)(F)F)CC[C@H](NC(=O)[C@H]2CCN(C(=O)c3cc(-c4cc(C)ncc4F)[nH]n3)C3(CC3)C2)CC1 (single isomer, unassigned) [Example 293-D] | 86 |  |
| 77.4 | COc1cc(-c2cc(C(=O)N3CCC(C(=O)NCc4ccc5[nH]c(C)cc5c4)CC3)n[nH]2)c(Cl)cn1 [Example 203, 1-(5-(5-chloro-2-methoxypyridin-4-yl)-1H-pyrazole-3-carbonyl)-N-((2-methyl-1H-indol-5-yl)methyl)piperidine-4-carboxamide] | 96.4 |  |
| 13.8 | COc1cc(-c2cc(C(=O)N3CCC(C(=O)NCc4nn(C)c5ccccc45)CC3)n[nH]2)c(Cl)cn1 [Example 218, 1-(5-(5-chloro-2-methoxypyridin-4-yl)-1H-pyrazole-3-carbonyl)-N-((1-methyl-1H-indazol-3-yl)methyl)piperidine-4-carboxamide] | 138 |  |
| 123 | COc1cc(-c2cc(C(=O)N3CC[C@H](C(=O)N[C@@H]4CCN(CC(C)(C)O)C4)CC34CC4)[nH]n2)c(F)cn1 [Example 344-B, (S)-4-(3-(5-fluoro-2-methoxypyridin-4-yl)-1H-pyrazole-5-carbonyl)-N—((R)-1-(2-hydroxy-2-methylpropyl)pyrrolidin-3-yl)-4-azaspiro[2.5]octane-7-carboxamide] | 570 |  |
| 67.9 | COc1cnc(CNC(=O)[C@H]2CCN(C(=O)c3cc(-c4cc(OC)ncc4F)[nH]n3)C3(CC3)C2)nc1 [Example 455, (S)-4-(5-(5-fluoro-2-methoxypyridin-4-yl)-1H-pyrazole-3-carbonyl)-N-((5-methoxypyrimidin-2-yl)methyl)-4-azaspiro[2.5]octane-7-carboxamide] | 213 |  |
| 995 | Cc1cc(-c2cc(C(=O)N3CC[C@H](C(=O)NC4CCC5(CCO5)CC4)CC34CC4)n[nH]2)ncn1 (stereo partly drawn) [Example 300-B, (S)-4-(5-(6-methylpyrimidin-4-yl)-1H-pyrazole-3-carbonyl)-N-(1-oxaspiro[3.5]nonan-7-yl)-4-azaspiro[2.5]octane-7-carboxamide] | 1510 |  |
| 126 | COc1cc(-c2cc(C(=O)N3CC[C@H](C(=O)NC4CN(C5CCOC5)C4)CC34CC4)n[nH]2)c(F)cn1 (single isomer, unassigned) [Example 433-A] |  | 347 |
| 501 | COc1cc(-c2cc(C(=O)N3CCC(C(=O)NCc4ncc(Cl)cn4)CC3)n[nH]2)c(Cl)cn1 [Example 138, 1-(5-(5-chloro-2-methoxypyridin-4-yl)-1H-pyrazole-3-carbonyl)-N-((5-chloropyrimidin-2-yl)methyl)piperidine-4-carboxamide] | 1470 |  |
| 49.3 | COc1cc(-c2cc(C(=O)N3CCC(C(=O)NCC(F)(F)c4ccccc4)CC3)n[nH]2)c(Cl)cn1 [Example 149, 1-(5-(5-chloro-2-methoxypyridin-4-yl)-1H-pyrazole-3-carbonyl)-N-(2,2-difluoro-2-phenylethyl)piperidine-4-carboxamide] | 418 |  |

| SMILES | AC50 [1] [nM] | IC50 ([2]; Homo sapiens, UM-UC-9, 144 h) [nM] | IC50 [2] [nM] |
| --- | --- | --- | --- |
| COc1cc(-c2cc(C(=O)N3CCC(C(=O)NC4CCCn5c(C)nnc54)CC34CC4)n[nH]2)c(F)cn1 (mixture of isomers) [Example 492, (S)-4-(5-(5-fluoro-2-methoxypyridin-4-yl)-1H-pyrazole-3-carbonyl)-N—((S)-3-methyl-5,6,7,8-tetrahydro-[1,2,4]triazolo[4,3-a]pyridin-8-yl)-4-azaspiro[2.5]octane-7-carboxamide and (S)-4-(5-(5-fluoro-2-methoxypyridin-4-yl)-1H-pyrazole-3-carbonyl)-N—((R)-3-methyl-5,6,7,8-tetrahydro-[1,2,4]triazolo[4,3-a]pyridin-8-yl)-4-azaspiro[2.5]octane-7-carboxamide] | 454 |  | > 10000 |
| COc1cc(-c2cc(C(=O)N3CCC(C(=O)NC4CCC(C(F)(F)F)C(O)C4)CC34CC4)n[nH]2)c(F)cn1 (mixture of isomers) [Example 501, (S)-4-(5-(5-fluoro-2-methoxypyridin-4-yl)-1H-pyrazole-3-carbonyl)-N-((1R,3R,4S)-3-hydroxy-4-(trifluoromethyl)cyclohexyl)-4-azaspiro[2.5]octane-7-carboxamide and (S)-4-(5-(5-fluoro-2-methoxypyridin-4-yl)-1H-pyrazole-3-carbonyl)-N-((1S,3S,4R)-3-hydroxy-4-(trifluoromethyl)cyclohexyl)-4-azaspiro[2.5]octane-7-carboxamide] | 5.4 |  | 13 |
| COc1cc(-c2cc(C(=O)N3CCC(C(=O)NC4CC5COCC(C4)N5C)CC34CC4)n[nH]2)c(F)cn1 (centres unmarked) [Example 419-A] | 359 | 854 |  |
| COc1cc(-c2cc(C(=O)N3CCC(C(=O)NC4CN(c5cnc(C)cn5)CC4(F)F)CC34CC4)n[nH]2)c(F)cn1 (mixture of isomers) [Example 490, (S)—N—((S)-4,4-difluoro-1-(5-methylpyrazin-2-yl)pyrrolidin-3-yl)-4-(5-(5-fluoro-2-methoxypyridin-4-yl)-1H-pyrazole-3-carbonyl)-4-azaspiro[2.5]octane-7-carboxamide and (S)—N—((R)-4,4-difluoro-1-(5-methylpyrazin-2-yl)pyrrolidin-3-yl)-4-(5-(5-fluoro-2-methoxypyridin-4-yl)-1H-pyrazole-3-carbonyl)-4-azaspiro[2.5]octane-7-carboxamide] | 1.9 |  | 17.3 |
| COc1cc(-c2cc(C(=O)N3CCC(C(=O)NCC4CCc5n[nH]cc5C4)CC34CC4)[nH]n2)c(F)cn1 (mixture of isomers) [Example 341, (S)-4-(3-(5-fluoro-2-methoxypyridin-4-yl)-1H-pyrazole-5-carbonyl)-N—(((R)-4,5,6,7-tetrahydro-2H-indazol-5-yl)methyl)-4-azaspiro[2.5]octane-7-carboxamide and (S)-4-(3-(5-fluoro-2-methoxypyridin-4-yl)-1H-pyrazole-5-carbonyl)-N—(((S)-4,5,6,7-tetrahydro-2H-indazol-5-yl)methyl)-4-azaspiro[2.5]octane-7-carboxamide] | 5 |  | 10.3 |
